Several values for one entry are separate records, joined by “and”; a condition that tells them apart may be missing. Equal values may be shown once. Read-outs that look alike come from different tables or passages of the source.
Legend:
[1] = tested on: biosynthesis of hepatic cholesterol (hepatic epoxysqualene cyclase); experiment: Influence on the biosynthesis of hepatic cholesterol in vivo: incorporation of radioactivity in the C27 sterols; details: oral (gavage), male OF1 mice, relative to control (vehicle) group, 14C-mevalonolactone at 1 h, sacrifice at 2 h
Method: The influence of the molecules on hepatic cholesterogenesis in vivo is tested on male OF1 mice. The animals are conditioned in reverse cycle two weeks before administration of the product.
At T=0 on the day of the experiment, the animals (3 to 6 mice/group) receive by oral administration (gavage) a suspension of the test product in the vehicle (3% gum arabic in water).
At T=1 h, the radioactive precursor (R,S-2-^14 C-mevalonolactone) in a 0.9% aqueous solution of NaCl is injected intraperitoneally [2.5 or 5 μCi/mouse (i.e. 9.25×10^4 Bq or 1.85×10^5 Bq respectively)].
At T=2 h, the animals are sacrificed by dislocation of the cervix; the livers are removed, rinsed, weighed and frozen in liquid nitrogen before being stored at -20° C.
During the conditioning period and on the day of the experiment, the animals have free access to food and drinking water.
The administration of the test product and the injection of the radioactive precursor take place in the middle of the dark period.
After thawing, the whole liver (or part of the liver) is homogenized in water at 0°-4° C. An aliquot of the homogenate is then saponified in alcoholic potassium hydroxide for 90 minutes at 80° C. The unsaponifiable lipids are then extracted with petroleum ether. The solvent is evaporated off to dryness under a stream of nitrogen and the dry residue is redissolved in a chloroform/methanol mixture (2/1). The products contained in the extract are then separated by chromatography on a thin layer of silica after migration in the system hexane/ethyl acetate (80/20).
The deposition of a standard mixture containing non-radioactive cholesterol, lanosterol, monoepoxysqualene, diepoxysqualene and squalene, together with ^14 C-cholesterol, makes it possible to determine the Rf of the compounds which serve as a reference for analysis of the radioactive profile of the unsaponifiable lipids.
The distribution of the radioactivity is analyzed with an automatic linear analyzer. The relative percentage of radioactivity in the C^27 -sterol peak of the control (vehicle) group represents 100% incorporation. Calculation of the influence is based on the ratio of the percentage of radioactivity in the C^27 -sterol peak of the treated group to that of the control group.

[2] = biological target: T1, epoxysqualene cyclase of the hepatic microsomes (Rattus norvegicus, UniProt P48450); experiment: Epoxysqualene cyclase inhibition: lanosterol formed from R,S-2,3-oxidosqualene by rat hepatic microsomes; type: biochemical, male Wistar rats
T1 construct: Rat hepatic microsomes are used as the enzyme source; from tissue; host or cells: liver microsomes of male Wistar rats
T1 sequence (P48450 1-733): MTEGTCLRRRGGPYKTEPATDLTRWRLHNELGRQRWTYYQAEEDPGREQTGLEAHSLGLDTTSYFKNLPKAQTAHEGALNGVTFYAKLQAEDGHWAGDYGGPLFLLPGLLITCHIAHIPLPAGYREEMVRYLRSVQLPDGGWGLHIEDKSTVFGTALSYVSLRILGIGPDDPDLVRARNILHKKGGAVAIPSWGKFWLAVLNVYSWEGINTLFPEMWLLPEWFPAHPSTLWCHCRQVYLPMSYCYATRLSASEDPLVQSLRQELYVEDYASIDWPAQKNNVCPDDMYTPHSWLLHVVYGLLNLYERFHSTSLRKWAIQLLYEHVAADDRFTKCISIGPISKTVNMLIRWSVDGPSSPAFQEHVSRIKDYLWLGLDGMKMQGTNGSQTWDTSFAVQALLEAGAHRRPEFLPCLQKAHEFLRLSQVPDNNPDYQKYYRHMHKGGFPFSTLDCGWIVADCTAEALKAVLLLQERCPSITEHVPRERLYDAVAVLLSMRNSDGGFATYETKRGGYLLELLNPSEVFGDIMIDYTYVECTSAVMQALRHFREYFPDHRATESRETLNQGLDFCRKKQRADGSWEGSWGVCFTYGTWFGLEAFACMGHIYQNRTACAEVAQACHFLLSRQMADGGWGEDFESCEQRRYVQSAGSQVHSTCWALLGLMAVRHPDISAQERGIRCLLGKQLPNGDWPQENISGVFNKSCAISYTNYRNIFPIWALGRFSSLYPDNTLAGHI
Method: The method consists in measuring the lanosterol formed from the R,S-2,3-oxidosqualene by the microsomal enzyme. The enzyme is prepared according to the method described by Ness G. C. (Ness G. C. et al., Biochem. J. (1986), 233,167-172).
Method of Measuring the Epoxysqualene Cyclase Activity
Rat hepatic microsomes are used as the enzyme source. The method consists in measuring the lanosterol formed from the R,S-2,3-oxidosqualene. The R,S-2,3-oxidosqualene, the test products and Tween®80, in the form of organic solutions (2-propanone or sulfinylbismethane) (25 μl ), are placed in test tubes and 400 μl of potassium phosphate buffer (0.1M, pH=7.4) are then added. The reaction is initiated by the addition of 100 μl of microsomes. For a final reaction volume of 525 μl , the mixture contains 150 μM of R,S-2,3-oxidosqualene, 0.1% of Tween®80 (to solubilize the R,S-2,3-oxidosqualene) and 250 μg of microsomal proteins. The reaction time is 60 minutes at 37° C. The reaction is stopped by the addition of 300 μl of methanolic potassium hydroxide (7%) and 20 μg of stigmasterol as an internal standard. After saponification at 80° C. for 30 minutes and stirring with a rotary stirrer, the sterols are extracted with 2 ml of hexane.
The lanosterol formed is separated from the R,S-2,3-oxidosqualene, the membrane cholesterol and the stigmasterol by gas chromatography after conversion to trimethylsilyl ethers. The derivatization of the sterols is carried out at 60° C. for 30 minutes after the addition of 25 μl of pyridine and 75 μl of the trimethylsilyl ester of 2,2,2-trifluoro-N-trimethylsilylethanimidic acid containing 1% of trimethylchlorosilane ethers.
After evaporation, the trimethylsilyl ethers are redissolved in 100 μl of hexane. An aliquot of this solution (2 μl) is chromatographed in the gas phase on an OV1 capillary column (0.32 mm, 25 m) under the following conditions: injector temperature=270° C., oven temperature=260° C., detector temperature=300° C., the carrier gas being nitrogen at a pressure of 7.10^4 Pa.
The potency of the molecules tested is expressed as the percentage inhibition of the amount of lanosterol formed for a concentration of 25.10^-6 mol of test product per liter. The results obtained with a number of compounds according to the invention are collated in Table II.

[3] = 25.10^-6 mol of test product per liter, 60 minutes at 37° C., pH=7.4, rat hepatic microsomes

SMILES	Percentage inhibition of the amount of lanosterol formed [2, 3]	further results
C=CCN1CC=C2C(C)(C)[C@@H](NC(=O)C(F)(F)F)CC[C@]2(C)C1 (relative stereo) [Example 1, N-Trifluoroacetyl-1,2,3,5,6,7,8,8a-octahydro-2-(2-propen-1-yl)-5,5,8a-trimethyl-(6β,8aβ)-6-isoquinolineamine]		Percentage influence on the incorporation of radioactivity in the C27 sterols ([1]; 50 mg base/kg): -37%
CCCCCCCCCCCCN1CC=C2C(C)(C)[C@@H](NC)CC[C@]2(C)C1 (relative stereo) [Example 12, N-Methyl-1,2,3,5,6,7,8,8a-octahydro-2-dodecyl-5,5,8a-trimethyl-(6β,8aβ)-6-isoquinolineamine ethanedioate]	65%	
C=CCN1CC=C2C(C)(C)[C@@H](NC)CC[C@]2(C)C1 (relative stereo) [Example 13, N-Methyl-1,2,3,5,6,7,8,8a-octahydro-2-(2-propen-1-yl)-5,5,8a-trimethyl-(6β,8aβ)-6-isoquinolineamine ethanedioate]		Percentage inhibition of the amount of lanosterol formed [2]: 63%
CCCCCCCCCCCCN1CC=C2C(C)(C)[C@@H](N)CC[C@]2(C)C1 (relative stereo) [Example 14, 1,2,3,5,6,7,8,8a-Octahydro-2-dodecyl-5,5,8a-trimethyl-(6β,8aβ)-6-isoquinolineamine E-2-butenedioate]	29%	
C=CCN1CC=C2C(C)(C)[C@@H](NC(C)=O)CC[C@]2(C)C1 (relative stereo) [Example 16, N-Acetyl-1,2,3,5,6,7,8,8a-octahydro-2-(2-propen-1-yl)-5,5,8a-trimethyl-(6β,8aβ)-6-isoquinolineamine 4-methylbenzenesulfonate]		Percentage influence on the incorporation of radioactivity in the C27 sterols ([1]; 50 mg base/kg): -14%
CCCCCCCCCCCCN1CC=C2C(C)(C)[C@@H](N(C)C)CC[C@]2(C)C1 (relative stereo) [Example 17, N,N-Dimethyl-1,2,3,5,6,7,8,8a-octahydro-2-dodecyl-5,5,8a-trimethyl-(6β,8aβ)-6-isoquinolineamine (E)-2-butenedioate]	100%	
CCCCCCCCCCCCN1CC=C2C(C)(C)[C@H](N(C)C)CC[C@]2(C)C1 (relative stereo) [Example 18, N,N-Dimethyl-1,2,3,5,6,7,8,8a-octahydro-2-dodecyl-5,5,8a-trimethyl-(6α,8aβ)-6-isoquinolineamine ethanedioate]	66%	
C=CCN1CC=C2C(C)(C)[C@@H](N(C)C)CC[C@]2(C)C1 (relative stereo) [Example 20, N,N-Dimethyl-1,2,3,5,6,7,8,8a-octahydro-2-(2-propen-1-yl)-5,5,8a-trimethyl-(6β,8aβ)-6-isoquinolineamine (E)-2-butenedioate]	89%	Percentage influence on the incorporation of radioactivity in the C27 sterols ([1]; 50 mg base/kg): -21%
CCCN1CC=C2C(C)(C)[C@@H](N(C)C)CC[C@]2(C)C1 (relative stereo) [Example 21, N,N-Dimethyl-1,2,3,5,6,7,8,8a-octahydro-2-propyl-5,5,8a-trimethyl-(6β,8aβ)-6-isoquinolineamine ethanedioate]	100%	
CN(C)[C@H]1CC[C@]2(C)CN(CC=Cc3ccccc3)CC=C2C1(C)C (relative stereo) [Example 23, N,N-Dimethyl-1,2,3,5,6,7,8,8a-octahydro-2-(3-phenyl-2-propen-1-yl)-5,5,8a-trimethyl-(6β,8aβ)-6-isoquinolineamine 4-methylbenzenesulfonate]	98%	
CN(C)[C@H]1CC[C@]2(C)CN(CC=C(c3ccccc3)c3ccccc3)CC=C2C1(C)C (relative stereo) [Example 24, N,N-Dimethyl-1,2,3,5,6,7,8,8a-octahydro-2-(3,3-diphenyl-2-propen-1-yl)-5,5,8a-trimethyl-(6β,8aβ)-6isoquinolineamine ethanedioate]	92%	
CC1(C)C2=CCN(CC3CO3)C[C@@]2(C)CC[C@@H]1NC(=O)C(F)(F)F (stereo partly drawn) [Example 5, N-Trifluoroacetyl-1,2,3,5,6,7,8,8a-octahydro-2-[1-(2,3-epoxypropyl)]-5,5,8a-trimethyl-(6β,8aβ)-6-isoquinolineamine]		Percentage influence on the incorporation of radioactivity in the C27 sterols ([1]; 50 mg base/kg): -32%
CC1(C)C2=CCN(CC(O)CO)C[C@@]2(C)CC[C@@H]1NC(=O)C(F)(F)F (stereo partly drawn) [Example 6, N-Trifluoroacetyl-1,2,3,5,6,7,8,8a-octahydro-2-[1-(2,3-dihydroxypropyl)]-5,5,8a-trimethyl-(6β,8aβ)-6-isoquinolineamine E-2-butenedioate]	62%	Percentage influence on the incorporation of radioactivity in the C27 sterols ([1]; 100 mg base/kg): -74% and -78%
CN(C)[C@H]1CC[C@]2(C)CN(CC(O)CO)CC=C2C1(C)C (stereo partly drawn) [Example 22, N,N-Dimethyl-1,2,3,5,6,7,8,8a-octahydro-2-[1-(2,3-dihydroxypropyl)]-5,5,8a-trimethyl-(6β,8aβ)-6-isoquinolineamine]	64%	
CC(Cc1ccc(C(C)C)cc1)CN1CC=C2C(C)(C)[C@@H](N(C)C)CC[C@]2(C)C1 (stereo partly drawn) [Example 25, N,N-Dimethyl-1,2,3,5,6,7,8,8a-octahydro-2-[1-[2-methyl-3-[4-(1-methylethyl)phenyl]propyl]]-5,5,8a-trimethyl-(6β,8aβ)-6-isoquinolineamine (E)-2-butenedioate]	98%	
